Test results: patent US20150313913A1, “POSITIVE ALLOSTERIC MODULATORS OF THE GABA-A RECEPTOR IN THE TREATMENT OF AUTISM” (UNIVERSITY OF WASHINGTON THROUGH ITS CENTER FOR …, priority 2013, published 2015)
Entries after “also recorded” stand apart in the source; their conditions may differ.

Key:
[1] = test system: mouse genetic models of human Dravet syndrome and idiopathic autism; experiment: Summary: low-dose treatment of mouse models of autism; assay type: in vivo, mice; settings: low doses that do not induce sedative or anxiolytic effects
Excerpt: The present disclosure describes methods effective in the rescue or amelioration of autism-like behavior, cognitive deficit, and context-dependent spatial memory.
In particular embodiments, these methods comprise the administration of low doses of a benzodiazepine to a human or other mammalian subject in order to rescue autism-like behavior, cognitive deficit, and context-dependent spatial memory. […] At such low doses, the administration of benzodiazepines, such as CLZ, to mammalian subjects will result in improvement of autism-like behavior, cognitive deficit, and context-dependent spatial learning and memory with much lower levels of sedation compared to mammalian subjects who receive typical higher doses of CLZ or other benzodiazepines that are used for treatment of anxiety, insomnia, or seizure.
The present disclosure is also directed to methods of rescuing or ameliorating indicia of Autism Spectrum disorders, autism-like behavior, cognitive deficit, and context-dependent spatial learning and memory in Dravet syndrome or idiopathic autism with α-2,3-specific GABA-A receptor positive allosteric modifiers. Such α-2,3-subunit selective GABA-A receptor positive allosteric modifiers include L838,417.
Therapeutic approaches to treat autistic traits in animal studies or in clinical trials have primarily focused on reducing excitatory neurotransmission in glutamatergic synapses to rebalance E/I ratio in autistic brain (Michalon et al., 2012; Yang et al., 2012). However, autistic-like behaviors in ASD mouse models are only partially reversed by drugs that inhibit excitatory neurotransmission, and these drugs also have unwanted side effects on wild-type mice (Henderson et al., 2012; Michalon et al., 2012; Yang et al., 2012). To overcome these drawbacks, the inventors focused on the opposing side, the GABAergic inhibitory transmission in autistic brain. Their results highlight the potential for therapy of autistic-like behaviors and cognitive deficit in ASD by low-dose treatment with subunit-selective benzodiazepines and other positive allosteric modulators of GABA-A receptors. […] It is possible that the biphasic dose-response relationship of the positive allosteric modulators reflects their actions on receptors containing α2,3 subunits at low doses and on receptors containing α1 subunits at higher doses.

[2] = test system: Scn1a+/− mice; experiment: Three-chamber social preference test; assay type: in vivo; settings: low doses, narrow dose range (FIGS. 41N, 41O)
Excerpt: The mouse was allowed to freely explore each chamber. […] The recorded video file was further analyzed by off-line video tracking software (ETHOVISION™ XT 7.0). […] All data shown are means±s.e.m. and analyzed using two-way ANOVA with Bonferroni's post hoc analysis and one-way ANOVA with Tukey's post hoc analysis.
Oral administration is specifically contemplated for the methods described herein, and is well known for both benzodiazepines and non-BDZ GABA-A enhancers as described herein.
(§1) The test was performed as described previously (Han et al., 2012) with minor modifications. The threechamber apparatus is a non-transparent Plexiglas box (30×60 cm) with two transparent partitions that make left, center, and right chambers (30×20 cm). In the first 10-min session, a test mouse was placed in the center of the empty three-chamber unit to habituate the test mouse. The mouse was allowed to freely explore each chamber. In the second 10-min session, an age- and gender-matched same strain mouse that had never been exposed to the test mouse, was placed in one of the two wire cages. The empty wire cage as an inanimate object cue was placed on the other side. Then, the test mouse was placed again in the center, and allowed to freely explore the chamber for 10 min. Time spent in each chamber, and time spent within a 5 cm radius proximal to each wire cage, as a close interaction were measured by the videotracking software (EthoVision XT 8.5, Noldus Technology). All data shown are means±s.e.m. and analyzed using two-way ANOVA with Bonferroni's post hoc analysis and one-way ANOVA with Tukey's post hoc analysis.
(§2) L-838,417, and DMCM (Sigma), dissolved in 100% DMSO (sterile, Sigma) was diluted in PBS (the final concentration of DMSO was ranged from 0.005% to 0.1%). Drugs were administered by an intraperitoneal injection in a volume of […] 30 min before the behavioral tests.

[3] = test system: BTBR mice; experiment: Three-chamber social interaction test; settings: for social interaction (time with stranger mouse, close interaction), dose series: single i.p. injection 30 min before test, low/increasing doses
Protocol: In the three-chamber test, a test mouse is placed in the center chamber, and the preference of the test mouse for interaction with an inanimate object (a small empty cage) in the left chamber vs. a stranger mouse in an identical cage in the right chamber using a digital camera and quantitative video-tracking analysis.
as §1, §2

[4] = test system: C57BL/6J mice; experiment: Three-chamber social interaction test; assay type: in vivo
Excerpt: The mouse was allowed to freely explore each chamber.

[5] = test system: BTBR mice; experiment: Context-dependent fear conditioning test; assay type: in vivo; settings: 0.05 mg/kg
Excerpt: The contextual fear-conditioning chamber was a square arena (25×25 cm) with clear PLEXIGLAS™ walls and a metal grid floor connected to a circuit board that delivered shocks to the metal grid (COULBOURN INSTRUMENTS™). An analog camera was attached on top of the chamber. The camera and the circuit board were connected to a personal computer, and its software (FREEZE FRAME™ 2.0, ACTIMETRICS™) controlled the circuit and recorded the data. The chamber was cleaned with 70% ethanol and wiped with paper towels before each session. In the habituation session, a test mouse was placed in the chamber and allowed to explore for 2 min^66-69. Immediately after habituation, the test mouse received a single mild foot shock (2 s, 0.5 mA). After staying in the chamber one more min, the mouse was removed from the chamber. For the 30-min short-term memory test, the mouse was returned to the context 30 min after the end of the training session. For 24-hr long-term memory test, the mouse was returned to the context 24 hr after the training session. The movement of mice was also recorded by a USB webcam (LIFECAM™ HD-6000, MICROSOFT™) and PC-based video capture software (WINAVI™ Video Capture, ZJ MEDIA DIGITAL TECHNOLOGY™) for 2 min. The recorded video file was further analyzed by off-line video tracking software (ETHOVISION™ XT 7.0, NOLDUS TECHNOLOGY™). The freezing scores were calculated by dividing the test session into 1 min bouts and averaging together all 2 min for each animal. All data shown.
Freezing behavior is defined as the period during which the velocity of the test mouse is less than 1.75 cm/s, and non-freezing behavior is defined as the period during which the velocity of the mouse is greater than 2 cm/s.

[6] = test system: C57BL/6J mice; experiment: Open field test; assay type: in vivo; settings: 0.2 mg/kg
Protocol: (§3) Open field test was performed as previously described (Han et al., 2012). 50×50 cm square open field arena with non-transparent white Plexiglas was used in this study. During the 10 min of trial, total distance moved, circling behavior (a complete 360-degree turn of nose angle with respect to the body center) and time in center (20×20 cm imaginary square) were measured by the video-tracking software (EthoVision XT 8.5, Noldus Technology).

[7] = test system: C57BL/6J mice; experiment: Elevated plus maze test; assay type: in vivo; settings: 0.2 mg/kg
Protocol: The test was performed as previously described (Han et al., 2012). The maze used in this study has two closed arms (5.1×30 cm) surrounded by 20-cm high non-transparent walls and two open arms (5.1×30 cm). During the 10 min of trial, times spent in closed, center, and open arms, and total distance traveled during the trial were measured by the video-tracking software (EthoVision XT 8.5, Noldus Technology).

[8] = test system: GABA-A receptor; settings: Table 1, exemplary benzodiazepines; cited from earlier work
[9] = Table 1, values marked *; cited from earlier work
[10] = in vivo; cited from earlier work
[11] = test system: BTBR mice; experiment: Open field test; assay type: in vivo; settings: clobazam 0.05 mg/kg
Protocol: as §3

SMILES: Cc1ccc(-c2nc3ccc(C)cn3c2CC(=O)N(C)C)cc1 [zolpidem]
- autistic-like behaviors and cognitive deficit in BTBR mice (summary) [1]: opposite effects
- social interactions in three-chamber test [2]: not effective
- social behavior (close interaction) ([3]; 0.5 mg/kg): made social behavior worse
- sedation / total distance moved during the three-chamber test ([3]; dose range up to 0.5 mg/kg (clonazepam: test doses)): dose-dependently decreased
- total movement during the three-chamber test at high dose ([3]; high doses, zolpidem 0.5 mg/kg): significantly decreased
- effect on social interaction at doses above the maximally effective dose ([3]; higher doses): aggravated their social interaction deficit at high doses
- social interaction (time with stranger mouse, close interaction), dose series [3]: failed to show beneficial effects
- social interaction (time with stranger mouse, close interaction), dose series ([3]; listed as Zolpidem): failed to rescue social deficit
- social behavior, dose series ([4]; L-838,417 / zolpidem (FIGS. 45I, 45J)): dose-dependently impaired
- social behavior at high dose ([4]; high dose): impaired
- long-term (24 h) memory [5]: not long-term memory
- short-term (30 min) memory [5]: enhanced short-term memory

SMILES: CCc1c(C(=O)OC)ncc2[nH]c3cc(OC)c(OC)cc3c12 [DMCM]
- normal social interaction behavior ([4]; 0.2 mg/kg single injection 30 min prior): impaired; also recorded: substantially reduced
- general locomotor behavior (distance moved) [6]: not altered
- time spent in center [6]: unaltered
- anxiety levels (time in the open arms) [7]: not altered
- number of entries in the open arms [7]: unchanged

SMILES: Cc1nnc2n1-c1ccc(Cl)cc1C(c1ccccc1Cl)=NC2 [Triazolam]
- Effect at GABA-A receptor [8]: Agonist
- Dose in humans for anti-anxiety, anti-convulsive, or sedative effects: equivalent dose to 10 mg diazepam [9]: 0.25 mg
- half-life [10]: 2 to 3 h

SMILES: CN1C(=O)CC(=O)N(c2ccccc2)c2cc(Cl)ccc21 [Clobazam]
- autistic-like behaviors and cognitive deficit in BTBR mice (summary) [1]: improved
- social interaction deficit ([3]; 0.05 mg/kg (low dose) 30 min before test): ameliorated social interaction deficits
- time in the chamber with the stranger mouse ([3]; FIG. 9): increased
- time of interaction with the stranger mouse ([3]; FIG. 9): increased
- social interaction (time with stranger mouse, close interaction), dose series [3]: increases
- social interaction of control mice ([4]; clobazam, FIG. 9): no effect
- anxiolytic effect (time spent in center) [11]: without sedative (FIG. 41C) or anxiolytic effects
- sedative effect (total distance moved) [11]: without sedative
- Effect at GABA-A receptor [8]: Agonist
- Dose in humans for anti-anxiety, anti-convulsive, or sedative effects: equivalent dose to 10 mg diazepam [9]: 20 mg
